The values below come from patent publication US8303989B2, “Compositions and methods for increasing the oral absorption of antimicrobials” (International Health Management Associates, Inc., priority 2000, dated 2012).

Data set [1] can be described thus: Plasma ceftriaxone (CTX) pharmacokinetics after intraduodenal (i.d.) administration to rats. The following applies: for BA00 / BA0-4 hr: i.d. 40 mg CTX eq/kg with capmul chase vs i.v. 20 mg CTX/kg.
Procedure: (§1) At specific time intervals, 0.6 ml of blood was taken from each rat and centrifuged. About 0.2 ml of the blood plasma was then analyzed for CTX by HPLC.
(§2) To determine absorption from the intestine, male Sprague Dawley rats weighing 250-300 g with free access to water were fasted for about 18 hours prior to the experiment. These rats were anesthetized and maintained with Ketamine/Xlazine ((60 mg/kg)/(80 mg/kg)) by intraperitoneal injection. The small intestine was exposed by a midline abdominal incision. A small incision was made in the stomach to insert a polyethylene tube (i.d. 0.76 mm, o.d. 1.22 mm, Clay Adams) toward the duodenum, which was closed at the exposed end by a stopcock to prevent drainage of drug solution from the duodenum. Ceftriaxone and oral formulations of CTX were dissolved in distilled water to achieve a final concentration of 40 mg CTX eq./kg and injected into the duodenum using the tube. Then 0.2 ml mono- and diglyceride mixture (Capmul) was coadministered into the duodenum using the intraduodenal tube. Blood samples were taken with a heparinized syringe through the jugular vein catheter at predetermined intervals.
(§3) The concentration of ceftriaxone in the plasma was determined by HPLC. Blood samples were centrifuged for 5 min at 5,000 rpm and 0.2 ml of plasma was taken into the microtube. 0.2 ml plasma was diluted by 0.2 ml of distilled water, and then 0.8 ml of acetonitrile was added for protein removal. The resulting suspensions were centrifuged for 10 min at 12,000 rpm and 50 μl of the clear supernatant was used for HPLC analysis. […] Percent bioavailability was calculated as follows: % BA=(AUC i.d./AUC i.v.)×(Dose i.v./Dose i.d.)×100
(§4) As a control, about 40 mg/kg of CTX was i.d. co-administered with 0.2 ml of capmul to four rats. […] At specific time intervals, 0.6 ml of blood was taken from each rat and centrifuged. About 0.2 ml of the blood plasma was then analyzed for CTX by HPLC.
The nature of data set [2]: Plasma ceftriaxone pharmacokinetics after intravenous administration to rats. The following applies: i.v. 20 mg CTX/kg, no capmul. It is filed as in vivo, rat. The protocol: These rats were anesthetized with 5.0 mg/100 g of pentobarbital by intraperitoneal injection. […] Blood samples were collected through the jugular vein catheter at predetermined time intervals.
For comparison purposes, about 20 mg/kg of CTX was administered (i.v.) to four rats.

A further data set is described as follows: in vivo. The following applies: male, Sprague-Dawley, rat, plasma, other: intraduodenal (i.d.).
The nature of data set [3]: Plasma concentration of meropenem in rats after intraduodenal administration. It is filed as in vivo, rat. The following applies: control: meropenem reconstituted per manufacturer, ID catheter, saline flush, no Capmul. How it is done: Meropenem was infused as a solution through an intraduodenal catheter followed by 0.2 ml. Capmul chase and a saline flush. The carrier formulation was meropenem in calcium-carrageenen to a final concentration of approximately 55% meropenem by weight. Two rats were dosed through a duodenum catheter and plasma samples were collected through 4 hours post dosage. For comparison purposes, a control group received meropenem reconstituted according to the manufacturers instructions, and infused as a solution through ID catheter followed by a saline flush.
Two fasted rats were dosed through a duodenal catheter and plasma samples were collected through 4 hours post dosage. […] A third rat expired prior to dosage, possibly due to anesthesia required for surgery. Rat #1 expired at 4 hours, possibly due to the effects of prolonged anesthesia and blood collection.

Where [4] appears, read: Table 5, rats, i.d. 40 mg CTX eq/kg, 0.2 ml capmul chase.
The mark [5] stands for this setting: Table 6, rats, i.d. 40 mg CTX eq/kg, 0.2 ml capmul chase.

Procedure for in vivo: as §1, §2, §3, §4

One may read the Cmax as the peak of the concentration-time curve. Broadly, the Tmax is the time from dosing to the highest level. Consider `CO/N=C(\C(=O)N[C@@H]1C(=O)N2C(C(=O)O)=C(CSc3nc(=O)c(O)nn3C)CS[C@H]12)c1csc(N)n1` [CTX, ceftriaxone], for which, in data set [1] (Table 5, rats), the BA00 is 13.9% and the BA0-4 hr was 9.4%. In data set [1] (setting [4]), this molecule yielded an AUC00 of 52.3 ± 32.4 μghr/ml and an AUG0-4 hr of 31.7 ± 12.4 μghr/ml. In data set [1] (Table 6, rats), this molecule displayed a BA00 of 13.9% and a BA0-4 hr of 9.4%. Further, in data set [1] (setting [5]), the AUC00 worked out at 52.3 ± 32.4 μghr/ml, the AUC0-4 hr is on record as 31.7 ± 12.4 μghr/ml and the Cmax turned out to be 17.2 µg/mL. In data set [2] (Table 5, rats), this molecule yielded an AUC00 of 188.0 ± 6.4 μghr/ml. For the same molecule, in data set [2] (Table 6, rats), the AUC00 turned out to be 188.0 ± 6.4 μghr/ml. In addition, in the data set “in vivo” (40 mg CTX eq./kg), the concentration at 30 min stood at 10 µg/mL, the concentration at 60 min came to 11 µg/mL, the concentration at 90 min came out at 9 µg/mL and the concentration at 120 min came to 7 µg/mL. In addition, in the data set “in vivo” (40 mg CTX eq./kg), the concentration at 180 min was determined as 6 µg/mL and the concentration at 240 min came out at 5 µg/mL. Besides, in “in vivo” (40 mg CTX eq/kg), the Cmax was 17.2 µg/mL and the Tmax was 1 h.
Regarding `C[C@@H](O)[C@H]1C(=O)N2C(C(=O)O)=C(S[C@@H]3CN[C@H](C(=O)N(C)C)C3)[C@H](C)[C@H]12` [meropenem], in data set [3], the absorption entry is listed as “not absorbed” and the blood concentrations result is recorded as “undetectable”.
